For 2 compounds, IC50 results are on record in ChEMBL document CHEMBL1140450, “On-resin cyclization of peptide ligands of the Vascular Endothelial Growth Factor Receptor 1 by copper(I)-catalyzed 1,3-dipolar azide-alkyne cycloaddition” (Bioorg Med Chem Lett, 2007).

Non-standard residues stand in square brackets, D forms with d. Residues, ends and D or L forms follow the SMILES beside them. *: point of attachment. X2 = [N-]=[N+]=N[C@@H](CCCCN)C(=O)*; Pra = C#CC[C@H](N)C(=O)O

The assay deals with Vascular endothelial growth factor receptor 1 (Homo sapiens, UniProt P17948). The assay can be described thus: Displacement of biotinylated VEGF165 from human recombinant VEGFR1.
Vascular endothelial growth factor receptor 1, sequence (P17948 whole entry): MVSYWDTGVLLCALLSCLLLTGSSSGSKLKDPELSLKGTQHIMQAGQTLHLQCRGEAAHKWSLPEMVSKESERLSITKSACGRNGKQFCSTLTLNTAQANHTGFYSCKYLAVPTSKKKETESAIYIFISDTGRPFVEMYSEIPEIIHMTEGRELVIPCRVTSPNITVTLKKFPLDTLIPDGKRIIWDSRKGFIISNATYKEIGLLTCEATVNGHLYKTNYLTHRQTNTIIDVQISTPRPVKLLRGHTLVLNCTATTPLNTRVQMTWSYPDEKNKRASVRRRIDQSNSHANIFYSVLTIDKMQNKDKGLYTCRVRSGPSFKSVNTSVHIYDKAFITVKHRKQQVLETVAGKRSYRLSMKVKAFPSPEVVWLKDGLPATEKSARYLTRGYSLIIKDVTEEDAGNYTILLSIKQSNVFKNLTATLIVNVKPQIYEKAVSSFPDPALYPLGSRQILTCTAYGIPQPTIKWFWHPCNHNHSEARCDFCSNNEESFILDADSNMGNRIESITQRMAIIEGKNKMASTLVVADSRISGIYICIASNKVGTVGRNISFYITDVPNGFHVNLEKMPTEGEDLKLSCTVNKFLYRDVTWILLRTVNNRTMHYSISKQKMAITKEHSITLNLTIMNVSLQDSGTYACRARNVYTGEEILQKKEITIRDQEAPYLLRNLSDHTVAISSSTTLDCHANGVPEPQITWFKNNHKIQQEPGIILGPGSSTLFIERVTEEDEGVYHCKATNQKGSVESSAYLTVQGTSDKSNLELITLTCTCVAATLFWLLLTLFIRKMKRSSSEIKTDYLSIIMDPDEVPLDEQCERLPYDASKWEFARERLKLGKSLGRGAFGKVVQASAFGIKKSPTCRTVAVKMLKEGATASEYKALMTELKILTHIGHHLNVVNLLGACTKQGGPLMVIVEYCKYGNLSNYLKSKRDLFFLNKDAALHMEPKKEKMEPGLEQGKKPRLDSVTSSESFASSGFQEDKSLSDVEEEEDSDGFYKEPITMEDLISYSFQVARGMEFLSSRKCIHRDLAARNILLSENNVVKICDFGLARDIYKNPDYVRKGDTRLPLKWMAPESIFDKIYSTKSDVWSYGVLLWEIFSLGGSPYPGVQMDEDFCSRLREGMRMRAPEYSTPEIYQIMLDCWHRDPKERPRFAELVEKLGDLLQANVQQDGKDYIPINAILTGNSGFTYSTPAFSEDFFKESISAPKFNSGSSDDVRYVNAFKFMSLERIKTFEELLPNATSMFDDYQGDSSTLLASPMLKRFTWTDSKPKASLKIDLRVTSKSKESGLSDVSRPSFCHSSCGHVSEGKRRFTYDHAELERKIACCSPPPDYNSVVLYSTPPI

For orientation: IC50 means the concentration at which inhibition is half-maximal. As to `CSCC[C@@H]1NC(=O)[C@H](CCC(N)=O)NC(=O)[C@H](Cc2cnc[nH]2)NC(=O)Cn2cc(nn2)C[C@@H](C(N)=O)NC(=O)[C@H](Cc2ccc(O)cc2)NC(=O)[C@H](Cc2ccc(O)cc2)NC(=O)[C@H](Cc2ccccc2)NC1=O`, the IC50 turned out to be 121 µM.

`C#CC[C@H](NC(=O)[C@H](CCC(=O)O)NC(=O)[C@H](CC(C)C)NC(=O)[C@@H]1CCCN1C(=O)[C@H](CCC(=O)O)NC(=O)[C@H](CC(=O)O)NC(=O)[C@H](Cc1ccc(O)cc1)NC(=O)[C@H](CCCCN)N=[N+]=[N-])C(N)=O` (X2-YDEPLE[Pra]-NH2): the half-maximal inhibitory concentration (IC50) amounted to 151 µM.
